Data on two compounds can be found in patent US5679684A, “Hydroxyalkylammonium-pyrimidines and nucleoside derivatives, useful as inhibitors of inflammatory cytokines” (Macronex, Inc., priority 1995, dated 1997).

In one data set the test system is HIV-1. As to conditions: advanced HIV-1 infection and AIDS; cited from earlier work.
In another data set the test system is latent HIV-1. As to conditions: monocytoid (U1) cell line; cited from earlier work.
Data set [1] deals with TNF-α. As to conditions: associated with HIV-1 inhibition; cited from earlier work.
Data set [2] is described as follows: Endotoxin testing (kinetic chromogenic procedure). Also on record: key: NE: No effect; NT: Not tested; INHIB: Inhibition; STIM: Stimulation; IC20: 20% Inhibitory Concentration; EC50: 50% Effective Concentration; TC: Tolerated Concentration. The protocol:
All batches of media and reagents are tested to ensure they are free of endotoxins before they are used. This laboratory uses a kinetic chromogenic procedure (Kinetic QCL; Whittaker Bioproducts) for the determination of endotoxin, performed using the Thermomax Plate reader from Molecular Devices. The plate reader incorporates dedicated software for the computer analysis of all data. Samples are tested following the manufacturer's instructions, at 3 different concentrations, in triplicate. Reference Standard Endotoxin (United States Pharmacopeia) obtained at a concentration of 10,000 endotoxin units/ml, is used to generate a standard curve to determine the actual concentration of endotoxin in the samples (sensitivity =/>0.005 endotoxin units/ml).

In another data set the test system is IL-1β. The data set is described as follows: Monocyte release of IL-1β. Format: cell-based, human. On the set-up: key to EFFECT: NE: No effect; NT: Not tested; INHIB: Inhibition; STIM: Stimulation; IC20: 20% Inhibitory Concentration; EC50: 50% Effective Concentration; TC: Tolerated Concentration. Particulars: IL1β.
The next data set in a line: LDH. The format is cell-based. Also on record: key to EFFECT: NE: No effect; NT: Not tested; INHIB: Inhibition; STIM: Stimulation; IC20: 20% Inhibitory Concentration; EC50: 50% Effective Concentration; TC: Tolerated Concentration.
A further data set concerns Tissue Factor. Nature of the data set: Monocyte procoagulant activity (Tissue Factor). Format: cell-based, human. Also on record: key to EFFECT: NE: No effect; NT: Not tested; INHIB: Inhibition; STIM: Stimulation; IC20: 20% Inhibitory Concentration; EC50: 50% Effective Concentration; TC: Tolerated Concentration. The protocol:
Monocyte Procoagulant Activity (Tissue Factor):
The adhered monocytes remaining on the 48-well tissue culture plates after removal of the supernatants above, are used to measure levels of Tissue Factor production. The cells are solubilized overnight at 4° C. in 10% Triton-X100 in PBS, diluted to 1% Triton-X100 with PBS then assayed by ELISA for Tissue Factor.

In another data set the test system is PAF. Nature of the data set: Monocyte release of PAF. Particulars: zymosan A stimulated. Format: cell-based, human. Also on record: key: NE: No effect; NT: Not tested; INHIB: Inhibition; STIM: Stimulation; IC20: 20% Inhibitory Concentration; EC50: 50% Effective Concentration; TC: Tolerated Concentration. The protocol:
(§1) Monocyte Release of PGE2, LTB4, and PAF:
(§2) Monocytes isolated as described above, were washed and resuspended in RPM1 containing 5 mg/ml HSA at 2×10^6 cells/ml and added to wells of a 48-well plates. The cells were allowed to adhere for 2 hours then washed in HBSS-BSA-HEPES buffer. Test materials were added at four concentrations (175 μl) for 60 minutes; then the monocytes were stimulated by addition of […] zymosan A (175 μl of 2× desired final concentration added). Supernatant medium was collected from the wells after 90 minutes incubation and stored at -20° C. until assayed. Supernatants were assayed for PGE2, LTB4 or PAF using specific scintillation proximity assays (SPA).

The test system of data set [3] is TNF-α. Nature of the data set: Monocyte release of TNF-α. Format: cell-based, human. On the set-up: key to EFFECT: NE: No effect; NT: Not tested; INHIB: Inhibition; STIM: Stimulation; IC20: 20% Inhibitory Concentration; EC50: 50% Effective Concentration; TC: Tolerated Concentration. As to conditions: TNFα.
Data set [4] deals with human peripheral blood mononuclear cells (PBMC). Nature of the data set: PBMC proliferation to mitogens (PHA). The format is cell-based. On the set-up: key: NE: No effect; NT: Not tested; INHIB: Inhibition; STIM: Stimulation; IC20: 20% Inhibitory Concentration; EC50: 50% Effective Concentration; TC: Tolerated Concentration. The protocol:
(§3) Human Peripheral Blood Mononuclear Cell (PBMC) Isolation:
(§4) Venous blood is obtained from healthy volunteers and mixed with an equal volume of sterile isotonic saline/10 mM HEPES and placed into 50 ml conical polypropylene tubes in 30 ml aliquots. Each aliquot of diluted blood is underlaid with 20-25 ml of sterile Lymphocyte Separation Medium (LSM; Organon-Technika, Durham, N.C.). The tubes are centrifuged at 400 g for 40 minutes at room temperature. The mononuclear cells at the interface are removed and washed twice in sterile isotonic saline/10 mM HEPES followed by a wash in Hank's Balanced Salt Solution (HBSS) or RPMI without serum, depending on their intended use. Cell concentrations for each donor are determined by counting in a haematology and analyser (Serono-Baker).
PBMC Proliferation to Mitogens (PHA):
PBMC are adjusted to 4×10^6 /ml in complete medium. To each well of a 96 well flat bottom tissue culture plate (Falcon 3072) is added 50 μl of cell suspension. Test materials (diluted in complete medium to 2× the desired final concentration) are added in 100 μl volumes to each well. […] The contents of the wells are harvested onto glass fibre filters using a multiple automated sample harvester (Tomtec), and the incorporated […] determined by liquid scintillation spectrophotometry and represented an cpm (counts per minute) incorporated per well.

For the next data set, the system named is GM-CSF. Nature of the data set: Monocyte release of GM-CSF. Format: cell-based, human. Also on record: key to EFFECT: NE: No effect; NT: Not tested; INHIB: Inhibition; STIM: Stimulation; IC20: 20% Inhibitory Concentration; EC50: 50% Effective Concentration; TC: Tolerated Concentration.
The next data set relates to IL-8. Nature of the data set: Monocyte release of IL-8. Format: cell-based, human. As to conditions: IL8. On the set-up: key to EFFECT: NE: No effect; NT: Not tested; INHIB: Inhibition; STIM: Stimulation; IC20: 20% Inhibitory Concentration; EC50: 50% Effective Concentration; TC: Tolerated Concentration.
For a further data set, the system named is PGE2. Nature of the data set: Monocyte release of PGE2. Also on record: key: NE: No effect; NT: Not tested; INHIB: Inhibition; STIM: Stimulation; IC20: 20% Inhibitory Concentration; EC50: 50% Effective Concentration; TC: Tolerated Concentration. Particulars: zymosan A stimulated. Format: cell-based, human. The protocol: as §1, §2
The nature of another data set: MTS. The format is cell-based. Also on record: key to EFFECT: NE: No effect; NT: Not tested; INHIB: Inhibition; STIM: Stimulation; IC20: 20% Inhibitory Concentration; EC50: 50% Effective Concentration; TC: Tolerated Concentration.
For a further data set, the system named is superoxide anion. The data set is described as follows: Monocyte superoxide anion (O2) release. Format: cell-based, human. On the set-up: key to EFFECT: NE: No effect; NT: Not tested; INHIB: Inhibition; STIM: Stimulation; IC20: 20% Inhibitory Concentration; EC50: 50% Effective Concentration; TC: Tolerated Concentration. The protocol:
Monocyte Superoxide Anion (O2) Release:
Monocytes are prepared as described above and resuspended to 5×10^6 /ml in HBSS containing 10 Mm HEPES, 2 g/l glucose, 0.1% BSA, Ph 7.2. To each well of a 96-well flat bottom, tissue culture plate is added 100 μl of cell suspension and 100 μl of buffer or test materials. Samples are run in quadruplicate. The plate is incubated for 60 min. at 37° C. followed by the addition of 50 μl of buffer containing cytochrome C (5 mg/ml; type VI, horse heart, Sigma) and bovine liver catalase (1500 U/ml; Sigma) in the presence of zymosan A ([…]; 750 μg/ml; Sigma). The plate is incubated an additional 120 minutes at 37° C. during which the absorbance at 550 nm is monitored using a microplate reader incorporating dedicated software for kinetic analysis (Molecular Devices; Menlo Park, Calif.).

The subject of data set [5] is human peripheral blood mononuclear cells (PBMC). The data set is described as follows: Two-way mixed lymphocyte reaction (MLR). Format: cell-based. On the set-up: key: NE: No effect; NT: Not tested; INHIB: Inhibition; STIM: Stimulation; IC20: 20% Inhibitory Concentration; EC50: 50% Effective Concentration; TC: Tolerated Concentration. The protocol: as §3, §4
Two-Way Mixed Lymphocyte Reaction (MLR):
PBMC are prepared as described for the mitogen assays, but resuspended to 2×10^6 cells/ml in complete medium. Fifty μl of cell suspension from two different individuals is then added to each well of a 96-well flat bottom tissue culture plate. An additional 100 μl of complete medium, dexamethasone or test compounds are then added to each well, the plates are incubated for 6 days at 37° C., and then pulsed with ^3 H-thymidine and harvested as previously described.

In another data set the test system is IL-6. The data set is described as follows: Monocyte release of IL-6. The format is cell-based, human. On the set-up: key to EFFECT: NE: No effect; NT: Not tested; INHIB: Inhibition; STIM: Stimulation; IC20: 20% Inhibitory Concentration; EC50: 50% Effective Concentration; TC: Tolerated Concentration. Particulars: IL6.
The test system of the next data set is LTB4. Nature of the data set: Monocyte release of LTB4. Format: cell-based, human. Also on record: key: NE: No effect; NT: Not tested; INHIB: Inhibition; STIM: Stimulation; IC20: 20% Inhibitory Concentration; EC50: 50% Effective Concentration; TC: Tolerated Concentration. Particulars: zymosan A stimulated. The protocol: as §1, §2
In the next data set the test system is monocytes. The data set is described as follows: Inhibition of monocyte chemotaxis. On the set-up: key to EFFECT: NE: No effect; NT: Not tested; INHIB: Inhibition; STIM: Stimulation; IC20: 20% Inhibitory Concentration; EC50: 50% Effective Concentration; TC: Tolerated Concentration. Format: cell-based, human. Particulars: chemoattractant FMLP. The protocol:
Inhibition of Monocyte Chemotaxis:
Monocytes are prepared as previously described, and resuspended at 5×10^6 cells/ml in HBSS, 0.1% BSA (HBSS-BSA). Fluorophore labeling of the cells is carried out by adding calcein-AM to the above cells at a final concentration of 2 μM. Following a 30 minute incubation at 37° C. in humidified 5% CO2, the labeled monocytes are washed twice and incubated in a range of dilutions of the test materials for 60 minutes at 37° C. in humidified 5% CO2. The pre-treated, calcein-AM loaded cells are then added in triplicate to the wells of the top compartment of a NeuroProbe (Cabin, John, M.D.) 96-well chemotaxis chamber (2×10^5 cells/well) and permitted to migrate through a 10 μm thick bonded polycarbonate membrane (5 μm porosity; NeuroProbe Inc; Cabin, John, M.D.) towards the wells of the lower compartment containing the chemoattractant (FMLP) at 5×10^-9 M. After a 90 minute incubation at 37° C. in a humidified chamber, the wells of the upper chambers are aspirated, the monocyte-associated membrane removed, non-migrating cells wiped off and the filters permitted to air dry to 15 minutes. The number of cells migrating through the membranes are quantified by measuring the fluorescent intensity of the migrating cells in a fluorescent microplate reader (CytoFluor 2300, Millipore Corp., Bedford, Mass.)

As for `O=C1CCC(N2C(=O)c3ccccc3C2=O)C(=O)N1` (centres unmarked) [Thalidomide], the “inhibition of activation of virus in PBMC, patients” value with HIV-1 was 16 out of 17. Also, the “activation of latent HIV-1” value in the data set with latent HIV-1 is on record as “suppress the activation of latent HIV-1”. Further, the “agonist-induced TNF-α protein and mRNA production” value in the data set on TNF-α [1] is recorded as “reduction”.

On to `CCCCCCCCCCCCCCCC(=O)OCC[N+](C)(C)CCOCn1cc(C)c(=O)[nH]c1=O` [Example 6, N,N-Dimethyl-N-2-(hexadecanoyloxy)ethyl-N-[N^1-(5-methyl-2,4-dioxopyrimidinyl)methoxyethyl]ammonium iodide], for which the EFFECT result in [2] is “NE”; in the data set with IL-1β, “INHIB”; in “LDH” it was “TC”; in the data set on Tissue Factor it was “INHIB”; in the data set on PAF, “NE”; in the data set with TNF-α [3] it was “INHIB”. Also, the EFFECT entry in [4] is “NE”; with GM-CSF, “INHIB”; in the data set on IL-8 it was “INHIB”; in the data set with PGE2, “NE”; in the data set “MTS”, “TC”; in the data set with superoxide anion it was “INHIB”. The EFFECT entry is reported as “NE” in [5], “INHIB” in the data set on IL-6, “NE” in the data set on LTB4 and “INHIB” in the data set on monocytes. The 50% effective concentration (EC50) is 7.5 µM in the data set with IL-1β (Homo sapiens, Monocyte); 4.3 µM with Tissue Factor (Homo sapiens, Monocyte); 5.5 µM in the data set on TNF-α [3] (Homo sapiens, Monocyte); 12.6 µM with GM-CSF (Homo sapiens, Monocyte); 2.9 µM in the data set with IL-8 (Homo sapiens, Monocyte); 34 µM with superoxide anion (Homo sapiens, Monocyte). Further, the EC50 came out at 5.7 µM in the data set on IL-6 (Homo sapiens, Monocyte) and 47 µM in the data set with monocytes (Homo sapiens, Monocyte). Moreover, the MNTC in “LDH” (ldh assay, effect TC, read-out: Tolerated Concentration (EC50)) was 100 µM; in the data set “MTS” (mts assay, effect TC, read-out: Tolerated Concentration (EC50)), 100 µM.

Broadly, the EC50 is the concentration giving half of the maximal effect.
